Reference: ChEMBL document CHEMBL5252547, “A review of salvinorin analogs and their kappa-opioid receptor activity” (Bioorg Med Chem Lett, 2018)

Target: Kappa-type opioid receptor (Homo sapiens, UniProt P41145)
Experiment: Inhibition of human kappa opioid receptor assessed as inhibition constant

Chain of Kappa-type opioid receptor (P41145 whole entry): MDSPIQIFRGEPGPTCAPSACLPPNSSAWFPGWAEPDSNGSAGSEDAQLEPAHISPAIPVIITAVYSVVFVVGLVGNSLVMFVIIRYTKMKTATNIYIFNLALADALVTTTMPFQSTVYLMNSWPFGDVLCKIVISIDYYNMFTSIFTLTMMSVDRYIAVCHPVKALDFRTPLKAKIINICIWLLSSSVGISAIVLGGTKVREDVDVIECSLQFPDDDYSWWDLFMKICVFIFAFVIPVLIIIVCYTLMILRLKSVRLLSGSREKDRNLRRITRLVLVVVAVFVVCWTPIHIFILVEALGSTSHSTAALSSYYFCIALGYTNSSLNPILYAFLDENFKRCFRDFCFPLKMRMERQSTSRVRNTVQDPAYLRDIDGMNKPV

SMILES: COC(=O)[C@@H]1C[C@H](OC(C)=O)C(=O)[C@H]2[C@@]1(C)CC[C@H]1C(=O)O[C@H](C(=O)Nc3ccccc3)C[C@]21C
- Ki: 1000 nM
